What is called IC50 is the concentration at which inhibition is half-maximal. By inhibition is commonly meant the share of the control response that was lost under treatment.

These results are taken from publication PMC9841523 (Journal of Medicinal Chemistry, 2022).

Experiment [1] concerns 4EBP1 T37/T46 phosphorylation (mTORC1). As to the kind of experiment: AlphaLISA/MSD analysis of 4EBP1 phosphorylation in MDA-MB-468 cells. The format is cell-based. As to conditions: Homo sapiens, MDA-MB-468, read-out: p4EBP1 IC50. (In general: In Alpha technology, singlet oxygen from a donor bead excites a nearby acceptor bead.)
Experiment [2] concerns the target T1, β1(h) (agonist radioligand) (Homo sapiens, UniProt P08588).
T1 construct: purchased ActivX Biosciences (KiNativ)
As to the kind of experiment: Eurofins Safety Screen 44. As to conditions: read-out: % Inhibition of Control Values. It counts as binding.

The target of experiment [3] is T2, V1a(h) (agonist radioligand) (Homo sapiens, UniProt P37288).
T2 construct: purchased ActivX Biosciences (KiNativ)
T2 sequence (P37288 whole entry): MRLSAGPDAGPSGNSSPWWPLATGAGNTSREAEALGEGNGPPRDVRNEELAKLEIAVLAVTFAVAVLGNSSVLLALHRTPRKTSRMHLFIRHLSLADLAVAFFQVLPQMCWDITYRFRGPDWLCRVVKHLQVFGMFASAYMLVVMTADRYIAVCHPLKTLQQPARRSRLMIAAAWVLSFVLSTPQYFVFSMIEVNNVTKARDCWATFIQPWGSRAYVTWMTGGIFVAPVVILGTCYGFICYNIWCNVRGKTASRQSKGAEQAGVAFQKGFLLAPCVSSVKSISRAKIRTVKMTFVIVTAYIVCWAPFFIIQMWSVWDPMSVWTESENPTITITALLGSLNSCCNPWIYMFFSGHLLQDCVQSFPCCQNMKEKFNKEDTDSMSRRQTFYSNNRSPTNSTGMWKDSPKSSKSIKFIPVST
The experiment can be described thus: Eurofins Safety Screen 44. The format is binding. As to conditions: read-out: % Inhibition of Control Values.

The test system of a further experiment is AurA, AurB, AurC. As to the kind of experiment: KiNativ kinase panel. It counts as cell-based, human. Conditions: 1 μM; MCF-7 Cells; ATP Loop; GKFGNVYLAR
For a further experiment, the system named is CDK11, CDK8. The experiment can be described thus: KiNativ kinase panel. The format is cell-based, human. Conditions: 1 μM, MCF-7 Cells, Lys2.
Another experiment concerns the target T3, CK1g3 (Homo sapiens, UniProt Q9Y6M4).
T3 construct: MCF7 cells were exposed to; endogenous in cells; host or cells: MCF7
As to the kind of experiment: KiNativ kinase panel. It counts as cell-based. As to conditions: 1 μM, MCF-7 Cells, Lys2.

The next experiment has as its target T4, DLK (Homo sapiens, UniProt Q12852).
T4 construct: endogenous in cells; host or cells: MCF7
The experiment can be described thus: KiNativ kinase panel. The format is cell-based. Conditions: 1 μM; MCF-7 Cells; Lys2; DLKSPNMLITYDDVVK

A further experiment deals with IKKe, TBK1. The experiment can be described thus: KiNativ kinase panel. It counts as cell-based, human. As to conditions: 1 μM; MCF-7 Cells; Lys2; DIKPGNIMR
A further experiment deals with T5, JAK1_Domain2 domain2 (Homo sapiens, UniProt P23458).
T5 construct: endogenous in cells; host or cells: MCF7
T5 sequence (P23458 whole entry, the tested form may be a part): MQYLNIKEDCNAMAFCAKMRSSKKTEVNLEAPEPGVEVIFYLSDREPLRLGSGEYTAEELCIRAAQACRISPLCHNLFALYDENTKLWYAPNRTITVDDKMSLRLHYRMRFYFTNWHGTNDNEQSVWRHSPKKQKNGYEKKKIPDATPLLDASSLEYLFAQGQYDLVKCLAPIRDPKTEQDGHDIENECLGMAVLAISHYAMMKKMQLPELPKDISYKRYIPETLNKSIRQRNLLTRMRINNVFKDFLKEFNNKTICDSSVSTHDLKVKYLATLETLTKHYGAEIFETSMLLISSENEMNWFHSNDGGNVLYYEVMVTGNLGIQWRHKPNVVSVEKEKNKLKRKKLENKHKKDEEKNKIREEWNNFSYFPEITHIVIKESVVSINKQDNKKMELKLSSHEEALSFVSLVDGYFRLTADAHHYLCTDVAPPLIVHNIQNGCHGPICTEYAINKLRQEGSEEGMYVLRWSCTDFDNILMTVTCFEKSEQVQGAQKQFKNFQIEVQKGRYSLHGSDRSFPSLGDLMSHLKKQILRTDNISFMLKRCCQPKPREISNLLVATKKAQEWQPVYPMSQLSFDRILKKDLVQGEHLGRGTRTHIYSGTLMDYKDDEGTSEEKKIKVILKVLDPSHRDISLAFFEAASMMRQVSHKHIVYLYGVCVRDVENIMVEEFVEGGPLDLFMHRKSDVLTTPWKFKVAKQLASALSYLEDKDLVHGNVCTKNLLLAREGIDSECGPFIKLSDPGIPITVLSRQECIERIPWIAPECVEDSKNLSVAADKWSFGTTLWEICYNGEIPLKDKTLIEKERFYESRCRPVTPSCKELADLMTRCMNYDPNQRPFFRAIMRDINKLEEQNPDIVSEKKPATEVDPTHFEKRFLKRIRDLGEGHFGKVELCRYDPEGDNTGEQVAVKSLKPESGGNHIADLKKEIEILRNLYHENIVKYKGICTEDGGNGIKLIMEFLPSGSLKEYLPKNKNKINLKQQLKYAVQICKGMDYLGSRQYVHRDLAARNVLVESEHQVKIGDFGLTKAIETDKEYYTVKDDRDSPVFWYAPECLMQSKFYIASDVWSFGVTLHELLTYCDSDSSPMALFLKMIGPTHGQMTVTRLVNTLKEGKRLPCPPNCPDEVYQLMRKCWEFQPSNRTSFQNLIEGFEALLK
As to the kind of experiment: KiNativ kinase panel. The format is cell-based. Conditions: 1 μM, MCF-7 Cells.

A further experiment deals with JNK1, JNK2, JNK3. As to the kind of experiment: KiNativ kinase panel. It counts as cell-based, human. Conditions: 1 μM, MCF-7 Cells, Lys2.
In another experiment the test system is MAPKAPK2, MAPKAPK3. The experiment can be described thus: KiNativ kinase panel. The format is cell-based, human. As to conditions: 1 μM, MCF-7 Cells, Lys2.
The target in the next experiment is T6, MARK4 (Homo sapiens, UniProt Q96L34).
T6 construct: purchased ActivX Biosciences (KiNativ)
T6 sequence (Q96L34 1-752): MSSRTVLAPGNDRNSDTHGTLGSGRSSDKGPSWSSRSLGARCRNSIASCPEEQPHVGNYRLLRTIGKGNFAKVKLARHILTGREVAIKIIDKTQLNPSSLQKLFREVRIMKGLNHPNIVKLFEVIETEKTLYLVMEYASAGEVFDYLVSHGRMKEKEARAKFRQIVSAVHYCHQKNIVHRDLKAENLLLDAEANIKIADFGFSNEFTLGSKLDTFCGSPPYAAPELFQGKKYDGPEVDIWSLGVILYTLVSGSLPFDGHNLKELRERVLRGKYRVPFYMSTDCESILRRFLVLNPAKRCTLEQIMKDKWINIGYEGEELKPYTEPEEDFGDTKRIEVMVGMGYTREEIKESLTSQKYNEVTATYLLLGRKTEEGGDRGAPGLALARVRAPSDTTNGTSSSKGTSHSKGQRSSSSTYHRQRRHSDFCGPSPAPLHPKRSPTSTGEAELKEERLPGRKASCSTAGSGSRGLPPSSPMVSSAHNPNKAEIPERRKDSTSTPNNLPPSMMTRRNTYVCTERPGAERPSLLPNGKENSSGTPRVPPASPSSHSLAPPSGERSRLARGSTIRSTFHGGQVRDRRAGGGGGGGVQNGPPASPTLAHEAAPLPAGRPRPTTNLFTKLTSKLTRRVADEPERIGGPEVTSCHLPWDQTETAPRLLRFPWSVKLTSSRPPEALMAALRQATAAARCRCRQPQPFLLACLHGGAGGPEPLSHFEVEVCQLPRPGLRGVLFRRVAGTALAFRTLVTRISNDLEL
The experiment can be described thus: KiNativ kinase panel. The format is cell-based. As to conditions: 1 μM, MCF-7 Cells.

The test system of another experiment is MST3, MST4, YSK1. The experiment can be described thus: KiNativ kinase panel. The format is cell-based, human. Conditions: 1 μM, MCF-7 Cells, Activation Loop.
The target of another experiment is T7, p38a (Homo sapiens, UniProt Q16539).
T7 construct: purchased ActivX Biosciences (KiNativ)
T7 sequence (Q16539 whole entry): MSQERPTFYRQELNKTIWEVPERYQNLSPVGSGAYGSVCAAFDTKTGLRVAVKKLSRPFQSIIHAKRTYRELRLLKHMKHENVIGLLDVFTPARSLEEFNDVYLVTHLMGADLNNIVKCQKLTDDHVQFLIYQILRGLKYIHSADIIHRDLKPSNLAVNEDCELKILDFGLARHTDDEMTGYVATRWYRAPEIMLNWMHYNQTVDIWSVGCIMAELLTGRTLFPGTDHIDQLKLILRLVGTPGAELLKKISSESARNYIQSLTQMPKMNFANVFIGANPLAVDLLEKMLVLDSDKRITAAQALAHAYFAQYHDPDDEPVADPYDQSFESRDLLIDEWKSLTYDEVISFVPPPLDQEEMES
The experiment can be described thus: KiNativ kinase panel. As to conditions: 1 μM, MCF-7 Cells. The format is cell-based.

The subject of the next experiment is p70S6K, p70S6Kb. The experiment can be described thus: KiNativ kinase panel. The format is cell-based, human. Conditions: 1 μM, MCF-7 Cells, ATP Loop.
In the next experiment the target is T8, SYK (Homo sapiens, UniProt P43405).
T8 construct: MCF7 cells were exposed to; endogenous in cells; host or cells: MCF7
The experiment can be described thus: KiNativ kinase panel. Conditions: 1 μM, MCF-7 Cells. It counts as cell-based.

The next experiment addresses T9, ULK1 (Homo sapiens, UniProt O75385).
T9 construct: Briefly, MCF7 cells were exposed to; endogenous in cells; host or cells: MCF7
The experiment can be described thus: KiNativ kinase panel. The format is cell-based. As to conditions: 1 μM; MCF-7 Cells; Lys2; DLKPQNILLSNPAGR

Another experiment deals with Wnk1, Wnk2, Wnk4. As to the kind of experiment: KiNativ kinase panel. It counts as cell-based, human. Conditions: 1 μM; MCF-7 Cells; Activation Loop; IGDLGLATLKR
Where [4] appears, read: Activation Loop, IGDFGLTKAIETDKEYYTVK
[5] abbreviates: Lys1, YDPEGDNTGEQVAVKSLKPESGGNHIADLKK

T4 sequence (Q12852 whole entry): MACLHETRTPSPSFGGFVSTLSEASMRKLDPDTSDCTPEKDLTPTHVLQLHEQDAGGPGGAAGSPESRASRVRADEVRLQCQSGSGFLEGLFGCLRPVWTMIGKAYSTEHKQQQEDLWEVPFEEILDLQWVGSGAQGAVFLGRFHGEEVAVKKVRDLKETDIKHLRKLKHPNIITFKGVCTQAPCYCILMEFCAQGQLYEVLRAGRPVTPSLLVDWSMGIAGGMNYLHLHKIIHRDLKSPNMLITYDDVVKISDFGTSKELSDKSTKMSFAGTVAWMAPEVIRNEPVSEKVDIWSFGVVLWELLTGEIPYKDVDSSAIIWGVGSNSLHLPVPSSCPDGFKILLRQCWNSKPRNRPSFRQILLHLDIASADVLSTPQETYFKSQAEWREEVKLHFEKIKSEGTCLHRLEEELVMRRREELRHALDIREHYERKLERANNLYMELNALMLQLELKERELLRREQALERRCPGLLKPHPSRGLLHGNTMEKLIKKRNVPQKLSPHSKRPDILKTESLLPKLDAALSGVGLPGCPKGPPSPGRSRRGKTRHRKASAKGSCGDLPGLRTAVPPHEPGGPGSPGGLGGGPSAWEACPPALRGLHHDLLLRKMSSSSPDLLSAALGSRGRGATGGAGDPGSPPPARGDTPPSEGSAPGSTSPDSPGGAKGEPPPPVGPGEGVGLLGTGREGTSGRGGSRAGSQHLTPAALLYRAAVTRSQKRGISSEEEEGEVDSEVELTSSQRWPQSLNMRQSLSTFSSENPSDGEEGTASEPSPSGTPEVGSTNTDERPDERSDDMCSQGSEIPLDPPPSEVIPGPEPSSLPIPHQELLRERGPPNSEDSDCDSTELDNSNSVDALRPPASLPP
T3 sequence (Q9Y6M4 whole entry): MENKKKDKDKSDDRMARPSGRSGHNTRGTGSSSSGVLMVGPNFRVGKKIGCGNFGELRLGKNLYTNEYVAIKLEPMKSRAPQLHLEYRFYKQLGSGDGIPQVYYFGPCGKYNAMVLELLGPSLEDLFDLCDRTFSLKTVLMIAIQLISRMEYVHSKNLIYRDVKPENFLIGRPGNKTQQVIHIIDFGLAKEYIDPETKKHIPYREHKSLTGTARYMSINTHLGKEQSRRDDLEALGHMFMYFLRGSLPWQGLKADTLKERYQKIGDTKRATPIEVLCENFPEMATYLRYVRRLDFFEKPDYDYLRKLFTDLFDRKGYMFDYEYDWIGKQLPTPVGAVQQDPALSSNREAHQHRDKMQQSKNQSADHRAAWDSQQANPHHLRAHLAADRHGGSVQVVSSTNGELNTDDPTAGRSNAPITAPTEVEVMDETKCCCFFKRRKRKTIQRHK
T9 sequence (O75385 whole entry): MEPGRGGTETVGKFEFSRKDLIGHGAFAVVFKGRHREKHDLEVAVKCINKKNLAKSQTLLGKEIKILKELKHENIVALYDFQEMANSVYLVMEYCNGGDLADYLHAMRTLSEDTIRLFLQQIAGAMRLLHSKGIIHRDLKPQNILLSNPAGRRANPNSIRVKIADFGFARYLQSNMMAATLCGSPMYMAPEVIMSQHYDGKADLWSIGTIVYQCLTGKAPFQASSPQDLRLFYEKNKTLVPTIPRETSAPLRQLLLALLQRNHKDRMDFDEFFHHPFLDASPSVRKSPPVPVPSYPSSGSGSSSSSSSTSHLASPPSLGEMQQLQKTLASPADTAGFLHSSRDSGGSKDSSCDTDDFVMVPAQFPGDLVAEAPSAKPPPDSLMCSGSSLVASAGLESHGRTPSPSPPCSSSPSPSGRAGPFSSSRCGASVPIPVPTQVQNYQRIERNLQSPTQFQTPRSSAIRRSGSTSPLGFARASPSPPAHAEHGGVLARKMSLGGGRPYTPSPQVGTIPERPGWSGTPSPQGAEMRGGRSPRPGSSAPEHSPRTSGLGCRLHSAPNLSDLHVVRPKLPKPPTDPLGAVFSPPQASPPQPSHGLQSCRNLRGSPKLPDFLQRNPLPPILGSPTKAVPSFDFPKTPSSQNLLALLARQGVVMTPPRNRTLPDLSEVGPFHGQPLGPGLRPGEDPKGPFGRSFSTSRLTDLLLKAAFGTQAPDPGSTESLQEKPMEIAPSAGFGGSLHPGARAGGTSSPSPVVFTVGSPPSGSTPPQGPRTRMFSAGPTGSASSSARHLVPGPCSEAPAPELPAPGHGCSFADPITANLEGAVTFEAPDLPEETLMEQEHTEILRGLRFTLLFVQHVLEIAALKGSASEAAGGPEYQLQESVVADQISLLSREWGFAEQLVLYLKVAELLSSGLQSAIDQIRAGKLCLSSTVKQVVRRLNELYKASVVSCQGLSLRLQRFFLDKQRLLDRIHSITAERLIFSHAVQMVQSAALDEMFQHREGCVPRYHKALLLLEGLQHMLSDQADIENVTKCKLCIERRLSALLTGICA
T1 sequence (P08588 whole entry): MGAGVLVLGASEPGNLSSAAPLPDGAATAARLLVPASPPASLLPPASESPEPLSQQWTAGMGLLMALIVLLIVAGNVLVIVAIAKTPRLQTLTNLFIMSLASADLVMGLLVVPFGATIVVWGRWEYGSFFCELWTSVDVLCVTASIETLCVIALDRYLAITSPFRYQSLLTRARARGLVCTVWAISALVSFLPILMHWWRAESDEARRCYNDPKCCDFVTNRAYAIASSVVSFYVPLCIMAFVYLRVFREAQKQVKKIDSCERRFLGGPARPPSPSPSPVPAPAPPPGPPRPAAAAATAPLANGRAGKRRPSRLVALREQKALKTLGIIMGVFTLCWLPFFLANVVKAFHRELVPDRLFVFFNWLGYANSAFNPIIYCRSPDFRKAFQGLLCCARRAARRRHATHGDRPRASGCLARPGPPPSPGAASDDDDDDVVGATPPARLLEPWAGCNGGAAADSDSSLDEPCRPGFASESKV

With `CO[C@H]1C[C@@H]2CC[C@@H](C)[C@@](O)(O2)C(=O)C(=O)N2CCCC[C@H]2C(=O)O[C@H]([C@H](C)C[C@@H]2CC[C@@H](OC(=O)NCCOCCOCCOCCOCCOCCOCCOCCOCCC(=O)N3CCc4cc(Cn5nc(-c6ccc7oc(N)nc7c6)c6c(N)ncnc65)ccc4C3)[C@H](OC)C2)C[C@@H](O)[C@H](C)/C=C(\C)[C@@H](O)[C@@H](OC)C(=O)[C@H](C)C[C@H](C)/C=C/C=C/C=C/1C` [compound 38], the IC50 in experiment [1] was 0.48 nM. In addition, the figures for the inhibition at 10 µM in experiment [2] and in [3] were 3% and 6.5%, respectively. Besides, the “KiNativ Kinase Panel Data” value with AurA, AurB, AurC is listed as 34.8; with CDK11, CDK8 ([…]), -39.0; on CK1g3 ([…]) it was 13.2; on DLK, -43.9; in the experiment on IKKe, TBK1, -33.9; on JAK1_Domain2 domain2 (setting [4]), 31.3. The “KiNativ Kinase Panel Data” value at JAK1_Domain2 domain2 (setting [5]) is given as 26.2; in the experiment on JNK1, JNK2, JNK3 ([…]), 13.8; with MAPKAPK2, MAPKAPK3 ([…]), -19.9; at MARK4 (Lys1, […]), 7.0; on MARK4 (Lys2, DLKAENLLLDAEANIK), 20.6; in the experiment with MST3, MST4, YSK1 ([…]), 12.4. For the same compound, the “KiNativ Kinase Panel Data” value at p38a (Lys2, DLKPSNLAVNEDCELK) is -4.3; at p38a (Other, QELNKTIWEVPER) it was -5.2; in the experiment on p70S6K, p70S6Kb ([…]) it was 20.1; on SYK (Activation Loop, ISDFGLSKALR) it was 18.4; on SYK (Activation Loop, […]), 6.4; on SYK (Lys1, TVAVKILK), 14.0. For the same compound, at ULK1, the “KiNativ Kinase Panel Data” value was -11.7.

With `CO[C@H]1C[C@@H]2CC[C@@H](C)[C@@](O)(O2)C(=O)C(=O)N2CCCC[C@H]2C(=O)O[C@H]([C@H](C)C[C@@H]2CC[C@@H](OC(=O)NCCOCCOCCOCCOCCOCCOCCOCCOCCC(=O)NCCS(=O)(=O)c3ccc(C(=O)N4CCOc5ccc(-c6ccc(N)nc6)cc5C4)c(C)c3F)[C@H](OC)C2)C[C@@H](O)[C@H](C)/C=C(\C)[C@@H](O)[C@@H](OC)C(=O)[C@H](C)C[C@H](C)/C=C/C=C/C=C/1C` [compound 40], the “KiNativ Kinase Panel Data” value in the experiment on AurA, AurB, AurC is -3.6; in the experiment on CDK11, CDK8 (DLKPANILVMGEGPER), -19.1; at CK1g3 (DVKPENFLIGRPGNK), -6.6; at DLK it was -20.3; in the experiment with IKKe, TBK1, -21.1; at JAK1_Domain2 domain2 (setting [4]) it was 19.5. Besides, the “KiNativ Kinase Panel Data” value at JAK1_Domain2 domain2 (setting [5]) is on record as 13.3; in the experiment with JNK1, JNK2, JNK3 (DLKPSNIVVK), -9.5; in the experiment with MAPKAPK2, MAPKAPK3 (DVKPENLLYTSK), -27.1; at MARK4 (Lys1, EVAIKIIDKTQLNPSSLQK), 24.2; on MARK4 (Lys2, DLKAENLLLDAEANIK), 22.2; with MST3, MST4, YSK1 (LADFGVAGQLTDTQIKR), 20.4. Further, the “KiNativ Kinase Panel Data” value on p38a (Lys2, DLKPSNLAVNEDCELK) is -6.8; on p38a (Other, QELNKTIWEVPER) it was -1.6; with p70S6K, p70S6Kb (GGYGKVFQVR), -4.7; on SYK (Activation Loop, AQTHGKWPVK) it was 13.3; at SYK (Activation Loop, ISDFGLSKALR), -14.3; on SYK (Lys1, TVAVKILK), -3.7. The “KiNativ Kinase Panel Data” value is given as -15.4 on ULK1 and -17.4 with Wnk1, Wnk2, Wnk4.
